This note sets out measurements from publication PMC6811590, “Solution structure, glycan specificity and of phenol oxidase inhibitory activity of Anopheles C-type lectins CTL4 and CTLMA2” (Scientific Reports, 2019).

Data set [1] deals with T1, CTLMA2 (Anopheles gambiae, UniProt Q7Q7F8).
T1 construct: gene 1276042; 6xHis-tagged CTLMA2 monomer, secreted from T.ni insect cells (baculovirus, synthetic gene)
T1 sequence (Q7Q7F8 18-174): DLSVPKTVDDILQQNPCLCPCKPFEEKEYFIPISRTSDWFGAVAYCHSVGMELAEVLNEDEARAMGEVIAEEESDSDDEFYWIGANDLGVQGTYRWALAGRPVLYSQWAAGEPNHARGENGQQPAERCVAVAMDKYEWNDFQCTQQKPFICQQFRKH
The data set is described as follows: SPR steady-state affinity (Biacore T200, protein immobilised on CM5). In kind it is binding. As to conditions: PBS, 1 mM CaCl2, 1 mM MgCl2. An excerpt:
SPR steady-state affinity (Biacore T200, protein immobilised on CM5) on CTLMA2
Background: SPR reads the build-up and loss of mass on a sensor chip optically.

Data set [2] addresses T2, CTL4/CTLMA2 (Anopheles gambiae, UniProt Q7Q7F7+Q7Q7F8).
T2 construct: gene 1276043; disulfide-bridged heterodimer, pFastbac-Dual, C-terminal 6xHis on CTL4 (178-183), secreted from T.ni cells, signal peptides removed; 35 kDa
T2 sequence (Q7Q7F7 25-177): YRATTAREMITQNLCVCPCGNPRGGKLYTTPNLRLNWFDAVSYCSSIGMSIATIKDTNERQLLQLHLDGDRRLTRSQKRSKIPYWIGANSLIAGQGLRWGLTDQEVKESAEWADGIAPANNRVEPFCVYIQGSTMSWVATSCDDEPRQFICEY
T2 sequence (Q7Q7F8 18-174): T1 sequence (Q7Q7F8 18-174)
The description is as above. In kind it is binding. Particulars: PBS, 1 mM CaCl2, 1 mM MgCl2. An excerpt:
SPR steady-state affinity (Biacore T200, protein immobilised on CM5) on CTL4/CTLMA2

For data set [3], the system named is An. gambiae CTL4 (AGAP005335) with C-terminal 6xHis tag, chain of the CTL4/CTLMA2 heterodimer. The data set is described as follows: non-reducing SDS-PAGE; purified CTL4/CTLMA2 on non-reducing and reducing SDS-PAGE; shows the disulfide-bridged species. Particulars: other: non-reducing SDS-PAGE.
For data set [4], the target named is T2, CTL4/CTLMA2. Description: glycan array, anti-His fluorescence detection. In kind it is binding. Particulars: PBS, 1 mM CaCl2, 1 mM MgCl2; glycan immobilised through spacer. An excerpt:
glycan array, anti-His fluorescence detection on CTL4/CTLMA2

In data set [5] the target is T1, CTLMA2. Description: glycan array, anti-His fluorescence detection. As to conditions: PBS, 1 mM CaCl2, 1 mM MgCl2; glycan immobilised through spacer. In kind it is binding. An excerpt: glycan array, anti-His fluorescence detection on CTLMA2
For another data set, the target named is T3, CTL4 (Anopheles gambiae, UniProt Q7Q7F7).
T3 construct: gene 1276043; 6xHis-tagged CTL4 monomer, secreted from T.ni insect cells (baculovirus, synthetic gene)
T3 sequence (Q7Q7F7 25-177): T2 sequence (Q7Q7F7 25-177)
The data set is described as follows: SPR steady-state affinity (Biacore T200, protein immobilised on CM5). The class given is binding. As to conditions: PBS, 1 mM CaCl2, 1 mM MgCl2. An excerpt: SPR steady-state affinity (Biacore T200, protein immobilised on CM5) on CTL4

What is called Kd is the constant that tells how readily two partners part at equilibrium. A low value points to a tighter complex. `CC(=O)N[C@H]1C(O)O[C@H](CO)[C@@H](O[C@@H]2O[C@@H](C)[C@@H](O)[C@@H](O)[C@@H]2O)[C@@H]1O[C@@H]1O[C@H](CO)[C@H](O)[C@H](OS(=O)(=O)O)[C@H]1O` (stereo partly drawn) [compound 287, Sulfo-Lewis A]: the Kd at CTLMA2 [1] was found to be 0.106 ± 0.06 µM; on CTL4/CTLMA2 [2], 0.095 ± 0.02 µM.

Take “An. gambiae CTLMA2 (AGAP005334), chain of the CTL4/CTLMA2 heterodimer”: the “percent of the purified product that is heterodimer” value in data set [3] is “the purified product is overwhelmingly (>95%) heterodimer”.

Regarding `O=P(O)(O)OC[C@H]1OC(O)[C@@H](O)[C@@H](O)[C@@H]1O` (stereo partly drawn) [compound 47, 6-H2PO3Manα-sp3], the CTL4/CTLMA2 at CTL4/CTLMA2 [4] was found to be 1.32 fold.

Take “GlcNAcβ1-4Galβ1-4GlcNAcβ-sp2 [compound 251]”: the CTLMA2 at CTLMA2 [5] is given as 1.04 fold.

`CC(=O)N[C@H]1[C@H](O[C@H]2[C@@H](O)[C@@H](CO)O[C@@H](O[C@H]3[C@H](O)[C@@H](O)C(O)O[C@@H]3CO)[C@@H]2O)O[C@H](CO)[C@@H](O)[C@@H]1O[C@@H]1O[C@H](CO)[C@H](O)[C@H](O)[C@H]1O` (stereo partly drawn) [compound 536, LNT] came in with a Kd on CTL4/CTLMA2 [2] of 8.22 ± 1.71 µM.

For the molecule `CC(=O)N[C@H]1[C@H](O[C@H]2[C@@H](O)[C@@H](CO)O[C@@H](O[C@H]3[C@H](O)[C@@H](O)C(O)O[C@@H]3CO)[C@@H]2O)O[C@H](CO)[C@@H](O[C@@H]2O[C@H](CO)[C@H](O)[C@H](O)[C@H]2O)[C@@H]1O` (stereo partly drawn) [383,488, LNnT], binding on CTL4/CTLMA2 [2] was characterised by a dissociation constant (Kd) of 17.6 ± 2.99 µM.

For “Neu5Acα2-3(GalNAcβ1-4)Galβ1-4Glcβ-sp2 [compound 421]”, on CTL4/CTLMA2 [4], the CTL4/CTLMA2 is 1.94 fold.

In turn, `CC(=O)N[C@H]1C(O)O[C@H](CO)[C@@H](O[C@@H]2O[C@H](COS(=O)(=O)O)[C@H](O)[C@H](O)[C@H]2O)[C@@H]1O` (stereo partly drawn) [compound 163] showed a Kd on CTL4 of 0.292 ± 0.15 µM.

On CTL4/CTLMA2 [4], “Neu5Acα2-3Galβ1-3GlcNAcβ1-3Galβ1-4Glcβ-sp4 [compound 536]” displayed a CTL4/CTLMA2 of 2.13 fold.

On to `CC(=O)N[C@H]1[C@H]([C@H](O)[C@H](O)CO)O[C@@](O[C@H]2[C@@H](O)[C@@H](CO)O[C@@H](O[C@H]3[C@H](O[C@@H]4O[C@@H](C)[C@@H](O)[C@@H](O)[C@@H]4O)[C@@H](NC(C)=O)C(O)O[C@@H]3CO)[C@@H]2O)(C(=O)O)C[C@@H]1O` (stereo partly drawn) [compound 428, Sialyl-Lewis X], for which the Kd was 0.619 ± 0.1 µM on CTLMA2 [1] and 3.81 ± 1 µM on CTL4/CTLMA2 [2].

With asialo-GM1 [18B], at CTL4, the Kd was found to be 15.4 ± 3.99 µM.

For the molecule `CC(=O)N[C@H]1[C@@H](O[C@H]2[C@@H](O)[C@@H](CO)OC(O)[C@@H]2O[C@@H]2O[C@@H](C)[C@@H](O)[C@@H](O)[C@@H]2O)O[C@H](CO)[C@H](O)[C@@H]1O` (stereo partly drawn) [compound 386, A blood group trisaccharide], the results for the Kd on CTLMA2 [1], at CTL4 and at CTL4/CTLMA2 [2] were 1.77 ± 0.19 µM, 49.3 ± 12.2 µM and 5.56 ± 2.9 µM, respectively.

Regarding `CC(=O)N[C@H]1C(O)O[C@H](CO)[C@@H](O)[C@@H]1O` (stereo partly drawn) [113,251, GlcNAc monosaccharide], the values for the Kd on CTLMA2 [1], on CTL4 and at CTL4/CTLMA2 [2] were 29.7 ± 7.91 µM, 27.9 ± 11.4 µM and 21.9 ± 2.8 µM, respectively.

As to `C[C@@H]1O[C@@H](O[C@H]2C(O)O[C@H](CO)[C@H](O)[C@@H]2O)[C@@H](O)[C@H](O)[C@@H]1O` (stereo partly drawn) [compound 479, H disaccharide], the results for the Kd at CTLMA2 [1] and at CTL4/CTLMA2 [2] were 10.4 ± 3.26 µM and 26.6 ± 6.81 µM, respectively.
